Read-outs that look alike come from different tables or passages of the source. Marks after values point to notes of the source that are not given here.
What was measured:
[1] = tested on: Colon 6044 (human colon carcinoma); assay: Antitumour activity in Co6044 after oral administration (Table 3); conditions: for BWC D13 / Toxic deaths (d) / Optimum T/C (on day): Oral, Q3 × 5
[2] = tested on: Colon 5776 (human colon carcinoma); assay: Antitumour activity in human colon xenograft Co5776, IP treatment; conditions: for Toxic deaths (d): D8, 11, 14, 17, 20, 8 mice; for antitumour activity in terms of reductions in tumour growth: gemcitabine 120 mg/kg, elaidic acid (5′)-gemcitabine ester 40 mg/kg, FIG. 1
From the text: (§1) Human colon cancer Co5776 was inserted to Ncr:nu/nu female mice subcutaneously, and treatment started when tumours reached a mean volume of 100 mm^3.

[3] = tested on: Colon 6044 (human colon carcinoma); assay: Antitumour activity in Co6044 after oral administration, different dosing schedules (Table 4); type: in vivo, NCR: nu/nu female mice; conditions: for BWC / Toxic deaths (d) / Optimum T/C (on day): Oral; for Toxic deaths (d): 7 mice
From the text: Antitumour Activity of Elaidic Acid (5′)-Gemcitabine Ester in Co6044 after Oral Administration

[4] = Maximum tolerated dose, every third day repeated five times; type: in vivo, mice; conditions: administered every third day
From the text: This is shown below by the experiments presented in table 1 and table 2 using different mice strains and also different human colon xenografts.

[5] = tested on: Co6044 (human colon carcinoma); assay: Antitumour activity in human colon cancer xenograft Co6044, IP treatment; conditions: for antitumor effect: IP every third day for five times, ester 40 mg/kg, gemcitabine 120 mg/kg; for Toxic deaths (d): 8 mice
From the text: (§2) Treatment started when the tumours reached a mean volume of 100 mm^3.

[6] = tested on: Colon 6044 (human colon carcinoma); conditions: mouse, in vivo, po
[7] = tested on: Co6044 (human colon carcinoma); conditions: mouse, in vivo, ip, 120 mg/kg
From the text: as §2

[8] = tested on: Colon 5776 (human colon carcinoma); conditions: mouse, in vivo, ip, 120 mg/kg
From the text: as §1

[9] = IP, 40 mg/kg, D8, 11, 14, 17, 20
[10] = IP, 120 mg/kg, D8, 11, 14, 17, 20

For `CCCCCCCC/C=C/CCCCCCCC(=O)OC[C@H]1O[C@@H](n2ccc(N)nc2=O)C(F)(F)[C@@H]1O` [Elaidic acid (5′)-gemcitabine ester, elaidic acid (5′)-gemcitabine ester], which “BWC D13” value ([1]; 40 mg/kg) is on record?
Its value is −7%.

And the “Toxic deaths (d)” value ([1]; 40 mg/kg, deaths on day 15)?
Its value is 2/8 (15).

And the “Optimum T/C (on day)” value ([1]; 40 mg/kg, on day 27)?
Its value is 5 (27)* %.

And the “Optimum T/C (on day)” value ([1]; 60 mg/kg)?
Its value is “Toxic”.

And the “BWC D13” value ([1]; 60 mg/kg)?
The value was −9%.

What about the “Toxic deaths (d)” value ([1]; 60 mg/kg, deaths on days 12-24) of the same compound?
Its value is 6/8 (12-24).

And the “Optimum T/C (on day)” value ([1]; 80 mg/kg)?
Its value is “Toxic”.

And the “BWC D13” value ([1]; 80 mg/kg)?
The value was −6%.

And the “Toxic deaths (d)” value ([1]; 80 mg/kg, deaths on days 16-22)?
The value was 6/8 (16-22).

What about the “antitumour activity after oral administration” value ([1]; oral, 40 mg/kg) of the same compound?
The value was “highly active”.

What about the “tolerability after oral administration” value ([1]; oral, 40 mg/kg) of the same compound?
The value was “tolerable”.

What about the “BWC (body weight change)” value ([2]; 40 mg/kg, D8, 11, 14, 17, 20) of the same compound?
The value was −4%.

And the “Optimum T/C (volume of treated tumour versus volume of control tumour)” value ([2]; 40 mg/kg, D8, 11, 14, 17, 20)?
Its value is 17* %.

And the “Toxic deaths (d)” value ([2]; 40 mg/kg)?
The value was 0.

What about the “antitumour activity in terms of reductions in tumour growth” value [2] of the same compound?
Its value is “high antitumour activity”.

What about the BWC ([3]; 5 mg/kg, D7-11) of the same compound?
The BWC was −3%.

What about the “Toxic deaths (d)” value ([3]; 5 mg/kg, D7-11) of the same compound?
Its value is 0.

And the “Optimum T/C (on day)” value ([3]; 5 mg/kg, D7-11, on day 28)?
Its value is 10 (28)* %.

And the BWC ([3]; 10 mg/kg, D7, 10, 13, 16, 19)?
The BWC was −1%.

What about the “Toxic deaths (d)” value ([3]; 10 mg/kg, D7, 10, 13, 16, 19) of the same compound?
The value was 0.

What about the “Optimum T/C (on day)” value ([3]; 10 mg/kg, D7, 10, 13, 16, 19, on day 24) of the same compound?
The value was 35 (24)* %.

And the BWC ([3]; 10 mg/kg, D7-11)?
The BWC was −5%.

And the “Toxic deaths (d)” value ([3]; 10 mg/kg, D7-11)?
The value was 0.

What about the “Optimum T/C (on day)” value ([3]; 10 mg/kg, D7-11, on day 17) of the same compound?
The value was 8 (17)* %.

What about the BWC ([3]; 15 mg/kg, D7, 10, 13, 16, 19) of the same compound?
Its BWC is −1%.

What about the “Toxic deaths (d)” value ([3]; 15 mg/kg, D7, 10, 13, 16, 19) of the same compound?
The value was 0.

What about the “Optimum T/C (on day)” value ([3]; 15 mg/kg, D7, 10, 13, 16, 19, on day 24) of the same compound?
Its value is 27 (24)* %.

And the BWC ([3]; 20 mg/kg, D7, 10, 13, 16, 19)?
The BWC was −3%.

What about the “Toxic deaths (d)” value ([3]; 20 mg/kg, D7, 10, 13, 16, 19, death on day 17) of the same compound?
Its value is 1 (17).

And the “Optimum T/C (on day)” value ([3]; 20 mg/kg, D7, 10, 13, 16, 19, on day 24)?
The value was 16 (24)* %.

And the BWC ([3]; 50 mg/kg, D7, 14)?
The BWC was 0%.

What about the “Toxic deaths (d)” value ([3]; 50 mg/kg, D7, 14) of the same compound?
Its value is 0.

What about the “Optimum T/C (on day)” value ([3]; 50 mg/kg, D7, 14, on day 17) of the same compound?
Its value is 22 (17)* %.

And the BWC ([3]; 100 mg/kg, D7, 14)?
The BWC was −4%.

What about the “Toxic deaths (d)” value ([3]; 100 mg/kg, D7, 14, death on day 20) of the same compound?
The value was 1 (20).

And the “Optimum T/C (on day)” value ([3]; 100 mg/kg, D7, 14, on day 24)?
Its value is 4 (24)* %.

And the “antitumour activity after oral administration” value ([3]; oral, all tested schedules)?
Its value is “High dose dependent activity”.

What about the “significance of antitumour activity” value ([3]; oral, all the tested schedules) of the same compound?
Its value is “Significant antitumour activity”.

And the maximum tolerated dose [4]?
Its maximum tolerated dose is roughly 40 mg/kg per injection.

What about the antitumor effect [5] of the same compound?
The antitumor effect was “Excellent antitumor effect”.

What about the “Optimum T/C” value [5, 9] of the same compound?
The value was 19* %.

And the “Toxic deaths (d)” value [5, 9]?
The value was 0.

What about the “BWC D8-15 (body weight change)” value ([5]; IP, 40 mg/kg, D8, 11, 14, 17, 20, D8-15) of the same compound?
Its value is −1.

For `Nc1ccn([C@@H]2O[C@H](CO)[C@@H](O)C2(F)F)c(=O)n1` [Gemcitabine, 2′,2′-difluorodeoxycytidine, reference compound], which “BWC D13” value ([6]; 120 mg/kg) is on record?
Its value is −16%.

And the “BWC D13” value ([6]; 180 mg/kg)?
Its value is −22%.

And the “BWC D13” value ([6]; 240 mg/kg)?
Its value is −21%.

What about the “BWC D8-15 (body weight change)” value [7] of the same compound?
The value was −3.

What about the “Optimum T/C (volume of treated tumour versus volume of control tumour)” value ([2]; 120 mg/kg, D8, 11, 14, 17, 20) of the same compound?
The value was 17* %.

And the “Toxic deaths (d)” value ([2]; 120 mg/kg, death on day 18)?
The value was 1 (18).

And the “antitumour activity in terms of reductions in tumour growth” value [2]?
Its value is “high antitumour activity”.

And the “BWC (body weight change)” value [8]?
Its value is −5%.

And the maximum tolerated dose [4]?
The maximum tolerated dose was “approximately 120 mg/kg per injection”.

What about the antitumor effect [5] of the same compound?
Its antitumor effect is “Excellent antitumor effect”.

And the “Optimum T/C” value [5, 10]?
The value was 15* %.

And the “Toxic deaths (d)” value [5, 10]?
Its value is 0.

Source: patent publication US20080280851A1 (Clavis Pharma AS, priority 2005, published 2008)
